Source: the supplement of paper PMC10307832

Tests used:
Test in all cases: relative viability (nuclei count vs DMSO), 5 days (fraction); higher = more cells survive
[1] = test system: HCC-15
In short: (§1)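 One day after seeding in 1536-well plates, lung cancer cell lines were dosed by pin tool. Dosing was either single-drug or a fixed anchor-drug dose plus five library-drug doses (not always all listed) in √10 steps. After 5 days, nuclei were stained in one fix-and-stain step and counted on 4× images, and relative viability is the nuclei count of treated wells over that of vehicle wells, given as the median of duplicate plates.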

[2] = test system: NCI-H2126
In short: as §1

[3] = test system: COR-L 105
In short: as §1

[4] = test system: NCI-H2009
In short: as §1

[5] = test system: NCI-H1993
In short: as §1

[6] = test system: PC-14
In short: as §1

[7] = test system: SK-MES-1
In short: as §1

[8] = test system: HCC-44
In short: as §1

[9] = test system: CAL-12T
In short: as §1

[10] = test system: LXF-289
In short: as §1

[11] = test system: BEN
In short: as §1

[12] = test system: HCC-827
In short: as §1

[13] = test system: PC-3 [JPC-3]
In short: as §1

[14] = test system: NCI-H2170
In short: as §1

[15] = test system: LU99A
In short: as §1

[16] = test system: NCI-H1563
In short: as §1

[17] = test system: LCLC-97TM1
In short: as §1

[18] = test system: HOP-62
In short: as §1

[19] = test system: HARA
In short: as §1

[20] = test system: NCI-H727
In short: as §1

[21] = test system: LC-2-ad
In short: as §1

[22] = test system: NCI-H2087
In short: as §1

[23] = test system: HCC-366
In short: as §1

[24] = test system: COR-L23
In short: as §1

CCCCCCCCCCCC1=C(O)C(=O)C=C(O)C1=O [Embelin] + CS(=O)(=O)N1CCN(Cc2cc3nc(-c4cccc5[nH]ncc45)nc(N4CCOCC4)c3s2)CC1 [Pictilisib] (partner 1 µM)
relative viability ([1]; first compound 0.08 µM): 0.736
relative viability ([1]; first compound 0.8 µM): 0.802
relative viability ([1]; first compound 2.53 µM): 0.85
relative viability ([1]; first compound 8 µM): 0.743
relative viability ([2]; first compound 0.08 µM): 0.482
relative viability ([2]; first compound 0.8 µM): 0.424
relative viability ([2]; first compound 2.53 µM): 0.523
relative viability ([2]; first compound 8 µM): 0.467
relative viability ([3]; first compound 0.08 µM): 0.338
relative viability ([3]; first compound 0.8 µM): 0.484
relative viability ([3]; first compound 2.53 µM): 0.424
relative viability ([3]; first compound 8 µM): 0.392
relative viability ([4]; first compound 0.08 µM): 0.947
relative viability ([4]; first compound 0.8 µM): 1.09
relative viability ([4]; first compound 2.53 µM): 0.659
relative viability ([4]; first compound 8 µM): 0.679
relative viability ([5]; first compound 0.08 µM): 0.729
relative viability ([5]; first compound 0.8 µM): 0.733
relative viability ([5]; first compound 2.53 µM): 0.776
relative viability ([5]; first compound 8 µM): 0.803
relative viability ([6]; first compound 0.08 µM): 0.669
relative viability ([6]; first compound 0.8 µM): 0.804
relative viability ([6]; first compound 2.53 µM): 1.16
relative viability ([6]; first compound 8 µM): 0.717
relative viability ([7]; first compound 0.08 µM): 0.347
relative viability ([7]; first compound 0.8 µM): 0.421
relative viability ([7]; first compound 2.53 µM): 0.35
relative viability ([7]; first compound 8 µM): 0.359
relative viability ([8]; first compound 0.08 µM): 0.62
relative viability ([8]; first compound 0.8 µM): 0.61
relative viability ([8]; first compound 2.53 µM): 0.678
relative viability ([8]; first compound 8 µM): 0.7
relative viability ([9]; first compound 0.08 µM): 0.49
relative viability ([9]; first compound 0.8 µM): 0.587
relative viability ([9]; first compound 8 µM): 0.391
relative viability ([10]; first compound 0.08 µM): 0.855
relative viability ([10]; first compound 0.8 µM): 0.794
relative viability ([10]; first compound 2.53 µM): 0.75
relative viability ([10]; first compound 8 µM): 0.819
relative viability ([11]; first compound 0.08 µM): 0.583
relative viability ([11]; first compound 0.8 µM): 0.704
relative viability ([11]; first compound 2.53 µM): 0.743
relative viability ([11]; first compound 8 µM): 0.556
relative viability ([12]; first compound 0.08 µM): 1.03
relative viability ([12]; first compound 0.8 µM): 1.04
relative viability ([12]; first compound 2.53 µM): 1.16
relative viability ([12]; first compound 8 µM): 1.19
relative viability ([13]; first compound 0.08 µM): 0.733
relative viability ([13]; first compound 0.8 µM): 0.759
relative viability ([13]; first compound 2.53 µM): 0.787
relative viability ([13]; first compound 8 µM): 0.669
relative viability ([14]; first compound 0.08 µM): 0.307
relative viability ([14]; first compound 0.8 µM): 0.325
relative viability ([14]; first compound 2.53 µM): 0.366
relative viability ([14]; first compound 8 µM): 0.286
relative viability ([15]; first compound 0.08 µM): 0.393
relative viability ([15]; first compound 0.8 µM): 0.334
relative viability ([15]; first compound 2.53 µM): 0.357
relative viability ([15]; first compound 8 µM): 0.281
relative viability ([16]; first compound 0.08 µM): 0.661
relative viability ([16]; first compound 0.8 µM): 0.786
relative viability ([16]; first compound 2.53 µM): 0.517
relative viability ([16]; first compound 8 µM): 0.659
relative viability ([17]; first compound 0.8 µM): 0.21
relative viability ([17]; first compound 2.53 µM): 0.184
relative viability ([17]; first compound 8 µM): 0.122
relative viability ([18]; first compound 0.08 µM): 0.883
relative viability ([18]; first compound 0.8 µM): 0.964
relative viability ([18]; first compound 2.53 µM): 0.433
relative viability ([18]; first compound 8 µM): 0.503
relative viability ([19]; first compound 0.08 µM): 0.604
relative viability ([19]; first compound 0.8 µM): 0.586
relative viability ([19]; first compound 2.53 µM): 0.489
relative viability ([19]; first compound 8 µM): 0.653
relative viability ([20]; first compound 0.08 µM): 0.359
relative viability ([20]; first compound 0.8 µM): 0.526
relative viability ([20]; first compound 2.53 µM): 0.355
relative viability ([20]; first compound 8 µM): 0.51
relative viability ([21]; first compound 0.08 µM): 0.458
relative viability ([21]; first compound 0.8 µM): 0.566
relative viability ([21]; first compound 2.53 µM): 0.618
relative viability ([21]; first compound 8 µM): 0.392
relative viability ([22]; first compound 0.08 µM): 0.885
relative viability ([22]; first compound 0.8 µM): 0.96
relative viability ([22]; first compound 2.53 µM): 1.24
relative viability ([22]; first compound 8 µM): 0.827
relative viability ([23]; first compound 0.08 µM): 0.151
relative viability ([23]; first compound 0.8 µM): 0.203
relative viability ([23]; first compound 2.53 µM): 0.149
relative viability ([23]; first compound 8 µM): 0.127
relative viability ([24]; first compound 0.08 µM): 0.832
relative viability ([24]; first compound 0.8 µM): 0.958
relative viability ([24]; first compound 2.53 µM): 0.874
relative viability ([24]; first compound 8 µM): 0.93
